According to patent EP0054898A1, “Formamidine derivatives, preparation and use thereof, pharmaceutical compositions containing them and their preparation” (HOECHST AKTIENGESELLSCHAFT, priority 1980, dated 1982):

What was measured:
Serum-Lipoproteine = test: Effect on serum lipoproteins (cholesterol in serum and in ultracentrifuge fractions) in rats after 7 days of oral treatment; assay type: in vivo, männlichen Wistar-Ratten; settings: for % Veränderung des Cholesterins gegenüber Kontrolle im Serum / % Veränderung des Cholesterins gegenüber Kontrolle in der Serum-Lipoprotein-Fraktion HDL / % Veränderung des Cholesterins gegenüber Kontrolle in der Serum-Lipoprotein-Fraktion LDL / % Veränderung des Cholesterins gegenüber Kontrolle in der Serum-Lipoprotein-Fraktion VLDL: oral (gavage), 7 days, pooled serum
From the text: Die Wirkung der angeführten Verbindungen auf die Serum- Lipoproteine wurde an männlichen Wistar-Ratten untersucht, die 7 Tage per Schlundsonde mit den angeführten in Polyäthylenglykol 400 suspendierten Verbindungen behandelt wurden. Außerdem wurde eine Kontrollgruppe, die nur das Lösungsmittel Polyäthylenglykol 400 erhielt, mitgeführt, sowie eine Ratten-Gruppe, die zum Vergleich das Standardhypolipidämikum Clofibrat, ebenfalls in Polyäthylenglykol 400 gelöst, erhielt. Pro Gruppe wurden in der Regel 10 Tiere eingesetzt, denen am Ende der Behandlung das Blut nach leichter Äthernakose aus dem Orbitalplexus entnommen wurde. Das daraus gewonnene Serum wurde gepoolt. Die Serum- Lipoproteine wurden in der Ultrazentrifuge in folgende Dichteklassen getrennt: • VLDL 1,006; LDL 1,006 bis 1,04; HDL 1,04 bis 1,21.
Aus den in der Ultrazentrifuge isolierten LipoproteinFraktionen wurde das darin enthaltene Choletserin vollenzymatisch nach der CHOD-PAP-Methode mittels der Testkombination von Boehringer Mannheim bestimmt und die Werte in ug/ml Serum umgerechnet. In der angeführten Tabelle (S.8) ist die Veränderung des Lipoprotein-Cholesterins in der behandelten Gruppe gegenüber einer unter gleichen Bedingungen mitgeführten Kontrollgruppe angegeben.
% Veränderung der Lipoproteine in Ratten-Serum nach siebentägiger oraler Behandlung mit den Verbindungen

Relative liver weight = assay type: in vivo; settings: in wirksamer Dosis; result in words
From the text: Es ist allgemein anerkannt, daß für die Entstehung artericsklerotischer Gefäßveränderungen, insbesondere der coronaren Herzkrankheit, Hyperlipoproteinämien einen wesentlichen Risikofaktor darstellen. Für die Prophylaxe und die Regression von atherosklerotischen Veränderungen kommt daher der Senkung erhöhter Serum-Lipoproteine eine außerordentliche Bedeutung zu. Hierbei kommt es aber auf ganz bestimmte Klassen von Serum-Lipoproteinen an, da die low density (LDL) und very low density-Lipoproteine (VLDL) einen atherogenen Risikofaktor darstellen, während die high density-Lipoproteine (HDL) eine Schutzfunktion gegenüber der coronaren Herzkrankheit darstellen. Hypolipidämika sollen demnach VLDL-Cholesterin und LDL-Cholesterin im Serum erniedrigen, dabei aber die HDL-Cholesterin-Konzentration nach Möglichkeit unbeeinflußt lassen oder sogar erhöhen. Die erfindungsgemäßen Verbindungen haben wertvolle therapeutische Eigenschaften. So erniedrigen sie vor allem die Konzentration von LDL und VLDL, während die HDL-Fraktion entweder in wesentlich geringerem Maße erniedrigt, oder sogar erhöht wird..Sie können daher zur Prophylaxe und Regression von atherosklerotischen Veränderungen herangezogen werden, indem sie einen kausalen Risikofaktor ausschalten. Hierzu zählen nicht nur die primären Hyperlipoproteinämien, sondern auch gewisse.sekundäre Hyperlipidämien wie sie z.B. beim Diabtes vorkommen.

SMILES | % Veränderung des Cholesterins gegenüber Kontrolle im Serum (Serum-Lipoproteine; Dosis 10 mg/kg/Tag) | % Veränderung des Cholesterins gegenüber Kontrolle in der Serum-Lipoprotein-Fraktion HDL (Serum-Lipoproteine; Dosis 10 mg/kg/Tag) | % Veränderung des Cholesterins gegenüber Kontrolle in der Serum-Lipoprotein-Fraktion LDL (Serum-Lipoproteine; Dosis 10 mg/kg/Tag) | % Veränderung des Cholesterins gegenüber Kontrolle in der Serum-Lipoprotein-Fraktion VLDL (Serum-Lipoproteine; Dosis 10 mg/kg/Tag) | also measured
CCCN(C=Nc1ccc(Oc2ccccc2)cc1)S(=O)(=O)c1ccc(C)cc1 [Beispiel 3] | -5% | +8% | -22% | -32% | 
CN(C#N)C=Nc1ccc(Oc2ccccc2)cc1 [Beispiel 48] |  |  |  |  | % Veränderung des Cholesterins gegenüber Kontrolle im Serum (Serum-Lipoproteine; Dosis 3 mg/kg/Tag): -8%; % Veränderung des Cholesterins gegenüber Kontrolle in der Serum-Lipoprotein-Fraktion HDL (Serum-Lipoproteine; Dosis 3 mg/kg/Tag): -2%; % Veränderung des Cholesterins gegenüber Kontrolle in der Serum-Lipoprotein-Fraktion LDL (Serum-Lipoproteine; Dosis 3 mg/kg/Tag): -56%
Cc1ccc(S(=O)(=O)N(C)C=Nc2c(C)cc(C)cc2C)cc1 [Beispiel 34] | +10% | +14% | -36% |  | 
Cc1ccc(S(=O)(=O)N(C)C=Nc2cc(C(F)(F)F)cc(C(F)(F)F)c2)cc1 [Beispiel 36] | -2% |  |  |  | 
Cc1ccc(S(=O)(=O)N(C)C=Nc2ccccc2C)cc1 [Beispiel 37] | -8% | +3% | -51% |  | 
Cc1ccc(S(=O)(=O)N(C)C=Nc2ccc(Oc3ccccc3)cc2)cc1 [Beispiel 12] | -6% | -1% | -42% | -70% | 
C#CCN(C=Nc1ccc(Oc2ccccc2)cc1)S(=O)(=O)c1ccc(C)cc1 [Beispiel 7] | -1% | +5% | -22% | -51% | 
CCOC(=O)C(C)(C)Oc1ccc(Cl)cc1 [Clofibrat, reference compound] |  |  |  |  | % Veränderung des Cholesterins gegenüber Kontrolle im Serum (Serum-Lipoproteine; Dosis 100 mg/kg/Tag): -24%; % Veränderung des Cholesterins gegenüber Kontrolle in der Serum-Lipoprotein-Fraktion HDL (Serum-Lipoproteine; Dosis 100 mg/kg/Tag): -33%; % Veränderung des Cholesterins gegenüber Kontrolle in der Serum-Lipoprotein-Fraktion LDL (Serum-Lipoproteine; Dosis 100 mg/kg/Tag): -25%; % Veränderung des Cholesterins gegenüber Kontrolle in der Serum-Lipoprotein-Fraktion VLDL (Serum-Lipoproteine; Dosis 100 mg/kg/Tag): -30%; Wirkung auf die Lipoproteinfraktionen (VLDL, LDL, HDL) (Serum-Lipoproteine; summary in words of the table, 7 days oral): etwa gleichstarke Senkung der LDL-Fraktion und der HDL-Fraktion; relatives Lebergewicht (Relative liver weight): starken Erhöhung des relativen Lebergewichts
Cc1ccc(S(=O)(=O)N(C)C=Nc2ccc(Cl)cc2C)cc1 [Beispiel 38] | -8% | +2% | -36% | -30% | 
Cc1ccc(S(=O)(=O)N(C)C=Nc2ccc(Cl)cc2C(F)(F)F)cc1 [Beispiel 39] |  |  |  |  | % Veränderung des Cholesterins gegenüber Kontrolle im Serum (Serum-Lipoproteine; Dosis 3 mg/kg/Tag): -3%; % Veränderung des Cholesterins gegenüber Kontrolle in der Serum-Lipoprotein-Fraktion HDL (Serum-Lipoproteine; Dosis 3 mg/kg/Tag): -7%; % Veränderung des Cholesterins gegenüber Kontrolle in der Serum-Lipoprotein-Fraktion LDL (Serum-Lipoproteine; Dosis 3 mg/kg/Tag): -26%; % Veränderung des Cholesterins gegenüber Kontrolle in der Serum-Lipoprotein-Fraktion VLDL (Serum-Lipoproteine; Dosis 3 mg/kg/Tag): -26%
Cc1ccc(S(=O)(=O)N(C=Nc2ccc(Sc3ccccc3)cc2)C(C)C)cc1 [Beispiel 28] |  |  |  |  | % Veränderung des Cholesterins gegenüber Kontrolle im Serum (Serum-Lipoproteine; Dosis 3 mg/kg/Tag): -5%; % Veränderung des Cholesterins gegenüber Kontrolle in der Serum-Lipoprotein-Fraktion HDL (Serum-Lipoproteine; Dosis 3 mg/kg/Tag): +2%; % Veränderung des Cholesterins gegenüber Kontrolle in der Serum-Lipoprotein-Fraktion LDL (Serum-Lipoproteine; Dosis 3 mg/kg/Tag): -25%; % Veränderung des Cholesterins gegenüber Kontrolle in der Serum-Lipoprotein-Fraktion VLDL (Serum-Lipoproteine; Dosis 3 mg/kg/Tag): -5%
Cc1ccc(S(=O)(=O)N(C=Nc2ccc(Oc3ccccc3)cc2)Cc2ccccc2)cc1 [Beispiel 2] | -4% | +3% | -22% | -50% | 
Cc1ccc(S(=O)(=O)N(C)C=Nc2ccc(Oc3ccc(Cl)cc3Cl)cc2)cc1 [Beispiel 13] | -6% | +1% | -39% | -100% | 
CN(C#N)C=Nc1ccc(Oc2ccc(Cl)cc2Cl)cc1 [Beispiel 49] |  |  |  |  | % Veränderung des Cholesterins gegenüber Kontrolle im Serum (Serum-Lipoproteine; Dosis 3 mg/kg/Tag): +2%; % Veränderung des Cholesterins gegenüber Kontrolle in der Serum-Lipoprotein-Fraktion HDL (Serum-Lipoproteine; Dosis 3 mg/kg/Tag): +2%; % Veränderung des Cholesterins gegenüber Kontrolle in der Serum-Lipoprotein-Fraktion LDL (Serum-Lipoproteine; Dosis 3 mg/kg/Tag): -48%
CCN(C=Nc1ccc(Sc2ccccc2)cc1)S(=O)(=O)c1ccc(C)cc1 [Beispiel 30] | -3% | -1% | -27% |  | 
CCCCN(C=Nc1ccc(Sc2ccccc2)cc1)S(=O)(=O)c1ccc(C)cc1 [Beispiel 27] |  |  |  |  | % Veränderung des Cholesterins gegenüber Kontrolle im Serum (Serum-Lipoproteine; Dosis 3 mg/kg/Tag): -18%; % Veränderung des Cholesterins gegenüber Kontrolle in der Serum-Lipoprotein-Fraktion HDL (Serum-Lipoproteine; Dosis 3 mg/kg/Tag): -2%; % Veränderung des Cholesterins gegenüber Kontrolle in der Serum-Lipoprotein-Fraktion LDL (Serum-Lipoproteine; Dosis 3 mg/kg/Tag): -50%; % Veränderung des Cholesterins gegenüber Kontrolle in der Serum-Lipoprotein-Fraktion VLDL (Serum-Lipoproteine; Dosis 3 mg/kg/Tag): -13%
Cc1ccc(S(=O)(=O)N(C)C=Nc2ccc(Sc3ccccc3)cc2)cc1 [Beispiel 25] | -5% | +5% | -45% | -70% | 
CN(C#N)C=Nc1ccc(Oc2ccc(Cl)cc2)c(Cl)c1 [Beispiel 50] |  |  |  |  | % Veränderung des Cholesterins gegenüber Kontrolle in der Serum-Lipoprotein-Fraktion VLDL (Serum-Lipoproteine; Dosis 1 mg/kg/Tag): +3%
